Consider 21 compounds from patent publication US11608335B2, “Somatostatin modulators and uses thereof” (CRINETICS PHARMACEUTICALS, INC., priority 2018, dated 2023).

SMILES strings stand for the structures. Like-named read-outs stand apart in the source and are kept apart here. Where only a bound is given, the exact number is not on record here.

The target in experiment [1] is T1, human somatostatin receptor subtype 2 (Homo sapiens, UniProt P30874).
T1 construct: expressed in transfected cells
As to the kind of experiment: cAMP assay for SST2R (inhibition of cAMP via human SST2 receptor). It is filed as cell-based. The settings on record: Table B, read-out: SST2 potency. An excerpt: cAMP Assay Protocol for SST2R:

Experiment [2] concerns the target human somatostatin receptor subtype 5 (Homo sapiens, UniProt P35346). As to the kind of experiment: cAMP assay for SST5R (inhibition of cAMP via human SST5 receptor). The settings on record: for Fold selectivity for SST5 vs SST2: SST5 over SST2, class symbols.
Setting [3] is: read-out: SST5 potency, inhibition of cAMP via human SST5 receptor, Table B.

Chain of human somatostatin receptor subtype 5 (P35346 whole entry): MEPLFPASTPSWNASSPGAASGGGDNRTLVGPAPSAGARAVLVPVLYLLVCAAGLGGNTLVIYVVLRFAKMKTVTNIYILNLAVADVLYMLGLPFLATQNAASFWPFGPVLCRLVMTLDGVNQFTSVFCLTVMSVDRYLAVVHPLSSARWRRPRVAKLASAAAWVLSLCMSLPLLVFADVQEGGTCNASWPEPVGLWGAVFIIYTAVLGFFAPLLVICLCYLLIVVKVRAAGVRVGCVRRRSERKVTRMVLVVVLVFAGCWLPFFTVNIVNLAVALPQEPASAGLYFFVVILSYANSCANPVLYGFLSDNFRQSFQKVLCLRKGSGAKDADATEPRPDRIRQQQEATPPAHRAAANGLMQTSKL
T1 sequence (P30874 whole entry): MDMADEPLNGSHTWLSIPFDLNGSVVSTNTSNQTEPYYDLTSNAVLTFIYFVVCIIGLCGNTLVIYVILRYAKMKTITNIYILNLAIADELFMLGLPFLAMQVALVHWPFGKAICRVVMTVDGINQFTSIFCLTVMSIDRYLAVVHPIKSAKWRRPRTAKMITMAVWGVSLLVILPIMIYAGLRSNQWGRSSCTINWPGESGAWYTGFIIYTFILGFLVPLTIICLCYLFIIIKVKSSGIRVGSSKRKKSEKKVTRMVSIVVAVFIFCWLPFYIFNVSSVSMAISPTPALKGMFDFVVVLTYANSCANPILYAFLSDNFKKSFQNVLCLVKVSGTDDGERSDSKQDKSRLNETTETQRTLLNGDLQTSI

`Cc1cccc2nc(-c3cncc(-c4cc(F)cc(C#N)c4)c3N3CC[C@@](N)(CO)C3)[nH]c12` [Compound 2-135, 3-{4-[(3S)-3-amino-3-(hydroxymethyl)pyrrolidin-1-yl]-5-(4-methyl-1H-1,3-benzodiazol-2-yl)pyridin-3-yl}-5-fluorobenzonitrile]: the figures for the EC50 in experiment [1], in experiment [2] and in experiment [2] (setting [3]) were 10 to 100 nM, below 10 nM and below 10 nM, respectively. Moreover, the “Fold selectivity for SST5 vs SST2” value in experiment [2] was “++ (++=100 to 499)”.

As to `Cc1cccc2nc(-c3cncc(-c4cc(F)c(F)c(C#N)c4)c3N3CC[C@H](N)C3)[nH]c12` [Compound 2-139, 5-{4-[(3S)-3-aminopyrrolidin-1-yl]-5-(4-methyl-1H-1,3-benzodiazol-2-yl)pyridin-3-yl}-2,3-difluorobenzonitrile], the EC50 in experiment [1] was 10 to 100 nM; in experiment [2] it was below 10 nM; in experiment [2] (setting [3]), below 10 nM. Further, the “Fold selectivity for SST5 vs SST2” value in experiment [2] is recorded as “++ (++=100 to 499)”.

Consider `Cc1ccnc2nc(-c3cncc(-c4cc(F)c(F)c(C#N)c4)c3N3CCC(C)(N)C3)[nH]c12` (stereo not drawn) [Compound 2-140, 5-[4-(3-amino-3-methylpyrrolidin-1-yl)-5-{7-methyl-1H-imidazo[4,5-b]pyridin-2-yl}pyridin-3-yl]-2,3-difluorobenzonitrile], for which the EC50 in experiment [1] is 10 to 100 nM; in experiment [2], below 10 nM; in experiment [2] (setting [3]), below 10 nM. The “Fold selectivity for SST5 vs SST2” value in experiment [2] is listed as “++ (++=100 to 499)”.

As to `Cc1cccc2nc(-c3cncc(-c4ccc(F)c(OC(F)(F)F)c4)c3N3CC[C@H](N)C3)[nH]c12` [Compound 2-141, (3S)-1-{3-[4-fluoro-3-(trifluoromethoxy)phenyl]-5-(4-methyl-1H-1,3-benzodiazol-2-yl)pyridin-4-yl}pyrrolidin-3-amine], the EC50 was 100 to 1000 nM in experiment [1], below 10 nM in experiment [2] and below 10 nM in experiment [2] (setting [3]). The “Fold selectivity for SST5 vs SST2” value in experiment [2] was “++ (++=100 to 499)”.

On to `CCn1c(-c2cncc(-c3ccc(F)c(C#N)c3)c2N2CC[C@H](N)C2)nc2c(F)cccc21` [Compound 2-142, 5-{4-[(3S)-3-aminopyrrolidin-1-yl]-5-(1-ethyl-4-fluoro-1H-1,3-benzodiazol-2-yl)pyridin-3-yl}-2-fluorobenzonitrile], for which the EC50 is above 1000 nM in experiment [1], below 10 nM in experiment [2] and below 10 nM in experiment [2] (setting [3]). Further, in experiment [2], the “Fold selectivity for SST5 vs SST2” value was “+++ (+++=≥500)”.

Regarding `CCn1c(-c2cncc(-c3cccc(C#N)c3)c2N2CC[C@H](N)C2)nc2c(F)cccc21` [Compound 2-143, 3-{4-[(3S)-3-aminopyrrolidin-1-yl]-5-(1-ethyl-4-fluoro-1H-1,3-benzodiazol-2-yl)pyridin-3-yl}benzonitrile], the EC50 in experiment [1] was 100 to 1000 nM; in experiment [2], below 10 nM; in experiment [2] (setting [3]), below 10 nM. The “Fold selectivity for SST5 vs SST2” value in experiment [2] is reported as “+++ (+++=≥500)”.

On to `CCn1c(-c2cncc(-c3cc(F)cc(C#N)c3)c2N2CC[C@H](N)C2)nc2c(F)cccc21` [Compound 2-144, 3-{4-[(3S)-3-aminopyrrolidin-1-yl]-5-(1-ethyl-4-fluoro-1H-1,3-benzodiazol-2-yl)pyridin-3-yl}-5-fluorobenzonitrile], for which the figures for the EC50 in experiment [1], in experiment [2] and in experiment [2] (setting [3]) were above 1000 nM, below 10 nM and below 10 nM, respectively. Also, in experiment [2], the “Fold selectivity for SST5 vs SST2” value is recorded as “+++ (+++=≥500)”.

Turning to `Cc1cccc(-c2cncc(-c3nc4cccc(C)c4[nH]3)c2N2CC[C@H](N)C2)c1` [Compound 2-146, (3S)-1-[3-(4-methyl-1H-1,3-benzodiazol-2-yl)-5-(3-methylphenyl)pyridin-4-yl]pyrrolidin-3-amine], the EC50 in experiment [1] was 100 to 1000 nM; in experiment [2], below 10 nM; in experiment [2] (setting [3]), below 10 nM. Moreover, the “Fold selectivity for SST5 vs SST2” value in experiment [2] was “++ (++=100 to 499)”.

Take `CC1(N)CCN(c2c(-c3ccc(F)c(C#N)c3)cncc2-c2nc3cccc(C#N)c3[nH]2)C1` (stereo not drawn) [Compound 2-147, 2-[4-(3-amino-3-methylpyrrolidin-1-yl)-5-(3-cyano-4-fluorophenyl)pyridin-3-yl]-1H-1,3-benzodiazole-4-carbonitrile]: the values for the EC50 in experiment [1], in experiment [2] and in experiment [2] (setting [3]) were 100 to 1000 nM, below 10 nM and below 10 nM, respectively. The “Fold selectivity for SST5 vs SST2” value in experiment [2] is “+++ (+++=≥500)”.

Regarding `CC1(N)CCN(c2c(-c3ccnc(C#N)c3)cncc2-c2nc3cccc(C(F)(F)F)c3[nH]2)C1` (stereo not drawn) [Compound 2-148, 4-(3-amino-3-methylpyrrolidin-1-yl)-5-[4-(trifluoromethyl)-1H-1,3-benzodiazol-2-yl]-[3,4′-bipyridine]-2′-carbonitrile], the values for the EC50 in experiment [1], in experiment [2] and in experiment [2] (setting [3]) were 100 to 1000 nM, below 10 nM and below 10 nM, respectively. Besides, the “Fold selectivity for SST5 vs SST2” value in experiment [2] is “+++ (+++=≥500)”.

Regarding `Cc1cncc2nc(-c3cncc(-c4ccc(F)c(C#N)c4)c3N3CCC(C)(N)C3)[nH]c12` (stereo not drawn) [Compound 2-149, 5-[4-(3-amino-3-methylpyrrolidin-1-yl)-5-{7-methyl-3H-imidazo[4,5-c]pyridin-2-yl}pyridin-3-yl]-2-fluorobenzonitrile], the EC50 in experiment [1] is 100 to 1000 nM; in experiment [2] it was below 10 nM; in experiment [2] (setting [3]), below 10 nM. The “Fold selectivity for SST5 vs SST2” value in experiment [2] was “++ (++=100 to 499)”.

For `Cc1ccnc2[nH]c(-c3cncc(-c4cccc(C#N)c4)c3N3CC[C@](C)(N)C3)nc12` [Compound 2-155, 3-{4-[(3S)-3-amino-3-methylpyrrolidin-1-yl]-5-{7-methyl-1H-imidazo[4,5-b]pyridin-2-yl}pyridin-3-yl}benzonitrile], the EC50 in experiment [1] is 100 to 1000 nM; in experiment [2], below 10 nM; in experiment [2] (setting [3]), below 10 nM. For the same compound, the “Fold selectivity for SST5 vs SST2” value in experiment [2] is “++ (++=100 to 499)”.

For `CC1(N)CCN(c2c(-c3ccnc(C#N)c3)cncc2-c2nc3cccc(Cl)c3[nH]2)C1` (stereo not drawn) [Compound 2-157, 4-(3-amino-3-methylpyrrolidin-1-yl)-5-(4-chloro-1H-1,3-benzodiazol-2-yl)-[3,4′-bipyridine]-2′-carbonitrile], the results for the EC50 in experiment [1], in experiment [2] and in experiment [2] (setting [3]) were 10 to 100 nM, below 10 nM and below 10 nM, respectively. Besides, the “Fold selectivity for SST5 vs SST2” value in experiment [2] is on record as “+++ (+++=≥500)”.

For the compound `C[C@]1(N)CCN(c2c(-c3ccnc(C#N)c3)cncc2-c2nc3cccc(Cl)c3[nH]2)C1` [Compound 2-163, 4-[(3S)-3-amino-3-methylpyrrolidin-1-yl]-5-(4-chloro-1H-1,3-benzodiazol-2-yl)-[3,4′-bipyridine]-2′-carbonitrile], the EC50 in experiment [1] was 100 to 1000 nM; in experiment [2], below 10 nM; in experiment [2] (setting [3]), below 10 nM. The “Fold selectivity for SST5 vs SST2” value in experiment [2] is on record as “+++ (+++=≥500)”.

Take `Cc1cc(F)cc2[nH]c(-c3cncc(-c4ccnc(C#N)c4)c3N3CC[C@](C)(N)C3)nc12` [Compound 2-166, 4-[(3S)-3-amino-3-methylpyrrolidin-1-yl]-5-(6-fluoro-4-methyl-1H-1,3-benzodiazol-2-yl)-[3,4′-bipyridine]-2′-carbonitrile]: the EC50 in experiment [1] is 100 to 1000 nM; in experiment [2], below 10 nM; in experiment [2] (setting [3]), below 10 nM. Also, the “Fold selectivity for SST5 vs SST2” value in experiment [2] is on record as “+++ (+++=≥500)”.

For the compound `C[C@]1(N)CCN(c2c(-c3ccc(F)c(C#N)c3)cncc2-c2nc3ncccc3[nH]2)C1` [Compound 2-167, 5-{4-[(3S)-3-amino-3-methylpyrrolidin-1-yl]-5-{1H-imidazo[4,5-b]pyridin-2-yl}pyridin-3-yl}-2-fluorobenzonitrile], the figures for the EC50 in experiment [1], in experiment [2] and in experiment [2] (setting [3]) were above 1000 nM, below 10 nM and below 10 nM, respectively. In addition, the “Fold selectivity for SST5 vs SST2” value in experiment [2] is reported as “+++ (+++=≥500)”.

Turning to `Cc1cnc2nc(-c3cncc(-c4ccc(F)c(C#N)c4)c3N3CC[C@](C)(N)C3)[nH]c2c1` [Compound 2-170, 5-{4-[(3S)-3-amino-3-methylpyrrolidin-1-yl]-5-{6-methyl-1H-imidazo[4,5-b]pyridin-2-yl}pyridin-3-yl}-2-fluorobenzonitrile], the EC50 in experiment [1] is above 1000 nM; in experiment [2] it was below 10 nM; in experiment [2] (setting [3]) it was below 10 nM. Further, the “Fold selectivity for SST5 vs SST2” value in experiment [2] is on record as “+++ (+++=≥500)”.

As for `COc1ccnc2nc(-c3cncc(-c4ccc(F)c(C#N)c4)c3N3CC[C@](C)(N)C3)[nH]c12` [Compound 2-172, 5-{4-[(3S)-3-amino-3-methylpyrrolidin-1-yl]-5-{7-methoxy-1H-imidazo[4,5-b]pyridin-2-yl}pyridin-3-yl}-2-fluorobenzonitrile], the EC50 was above 1000 nM in experiment [1], below 10 nM in experiment [2] and below 10 nM in experiment [2] (setting [3]). In addition, the “Fold selectivity for SST5 vs SST2” value in experiment [2] is given as “+++ (+++=≥500)”.

For the compound `C[C@]1(N)CCN(c2c(-c3ccnc(C#N)c3)cncc2-c2nc3cccc(C(F)(F)F)c3[nH]2)C1` [Compound 2-175, 4-[(3S)-3-amino-3-methylpyrrolidin-1-yl]-5-[7-(trifluoromethyl)-1H-1,3-benzodiazol-2-yl]-[3,4′-bipyridine]-2′-carbonitrile], the EC50 is 100 to 1000 nM in experiment [1], below 10 nM in experiment [2] and below 10 nM in experiment [2] (setting [3]). Besides, the “Fold selectivity for SST5 vs SST2” value in experiment [2] was “+++ (+++=≥500)”.

With `C[C@]1(N)CCN(c2c(-c3cccc(C#N)c3)cncc2-c2nc3cccc(C#N)c3[nH]2)C1` [Compound 2-177, 2-{4-[(3 S)-3-amino-3-methylpyrrolidin-1-yl]-5-(3-cyanophenyl)pyridin-3-yl}-1H-1,3-benzodiazole-7-carbonitrile], the EC50 in experiment [1] was 100 to 1000 nM; in experiment [2], below 10 nM; in experiment [2] (setting [3]) it was below 10 nM. Further, the “Fold selectivity for SST5 vs SST2” value in experiment [2] is “+++ (+++=≥500)”.

With `Cc1ccnc2nc(-c3cncc(-c4cccc(Cl)c4)c3N3CC[C@](C)(N)C3)[nH]c12` [Compound 2-180, (3S)-1-[3-(3-chlorophenyl)-5-{7-methyl-1H-imidazo[4,5-b]pyridin-2-yl}pyridin-4-yl]-3-methylpyrrolidin-3-amine], the EC50 in experiment [1] is 10 to 100 nM; in experiment [2], below 10 nM; in experiment [2] (setting [3]), below 10 nM. Also, the “Fold selectivity for SST5 vs SST2” value in experiment [2] was “++ (++=100 to 499)”.
